{
  "source": "patent US20210113522A1",
  "about": "“COUMARIN DERIVATIVE AS ANTI-ASTHMATIC AGENT, PHARMACEUTICAL COMPOSITION THEREOF, ITS PREPARATION AND USE” (I-NOVA MEDICINSKA ISTRAZIVANJA D.O.O., priority 2017, published 2021)",
  "key": {"[1]": {"experiment": "MTT cytotoxicity / cell survival in murine fibroblast line L929", "assay_type": "cell-based", "conditions": "mouse; L929, 48 h; read-out: CC50 (cytotoxic concentration for 50% cells)", "method": "(§1) Cytotoxicity of compound 1 was determined through the study of cell growth and viability by the methods of determination of maximal non-toxic concentration (MNC) and concentration required for cell viability by 50% (CC50). […] Cytotoxic concentration at 50% (CC50) was defined as the concentration of the test substance 1 at which 50% of the cells die as a result of toxicity of the test substance.\n(§2) Evaluation of cytotoxicity was an important part of the assessment of anti-asthmatic activity of compound 1 since its beneficial therapeutic effect at asthma and other inflammatory respiratory diseases should be selective with little or no effects on the metabolism of host cells. The study of cytotoxicity of compound 1 was performed on two types of cell lines of murine fibroblasts L20B and L929 from European collection of cell cultures (ECACC).\n(§3) Cell viability was estimated by a modification of the 3-(4,5-dimethylthiazol-2-yl)-2,5-diphenyltetrazolium bromide (MTT) assay which is one of the most frequently used methods for measuring cell proliferation and cytotoxicity; see literature reference 12: • 12) T. Mosmann: Rapid colorimetric assay for cellular growth and survival: Application to proliferation and cytotoxicity assays, J. Immunol. Methods 65 (1983) 55-63.\n(§4) Cell viability was reported as the percentage (%) of viable cells in the wells treated with different concentrations of the test compound 1, compared to the control cells untreated with the substance. Maximal non-toxic concentration (MNC) and cytotoxic concentration for 50% of cells (CC50) were calculated from the constructed “dose-cellular survival” curve.\n(§5) Cytotoxicity of compound 1 was determined through the study of cell growth and viability by the methods of determination of maximal non-toxic concentration (MNC) and concentration required for cell viability by 50% (CC50).\n(§6) The compound 1 (Mw=410.02) under study were first dissolved in DMSO (Sigma-Aldrich) to a concentration of 0.1 mol/L (0.1 M) as a stockade later diluted in cell growth medium Dulbecco's Modified Eagle Medium (DMEM; Sigma-Aldrich) with 2% heat inactivated fetal bovine serum.\n(§7) The study of cytotoxicity of compound 1 was performed on two types of murine fibroblasts cell lines: L20B and L929 from European collection of cell cultures (ECACC). Cells were routinely maintained as adherent cell cultures in DMEM medium and containing 10% Fetal bovine serum (FBS; Gibco), 2 mM L-glutamine (Sigma-Aldrich), 100 U/mL penicillin G sodium (Sigma-Aldrich), 100 μg/mL streptomycin sulphate (Sigma-Aldrich) at 37° C. in a humidified air incubator containing 5% carbon dioxide (CO2). Cultivation of the cells was continued with direct monitoring every two or three days using a phase contrast microscope. The cells are harvested in 1× trypsin/EDTA solution (Sigma-Aldrich). Cells were passages 1:3-1:5 at a density around 5-6·10^4 cells/mL, while the passage was re-suspended repeatedly.\n(§8) Methods of determining cell growth, cell viability, maximal non-toxic concentration (MNC) and concentrations, required cell viability by 50% (CC50): Cell viability was estimated by a modification of the MTT [3-(4,5-dimethylthiazol-2-yl)-2,5-diphenyltetrazolium bromide] assay; see literature reference 12. The MTT reduction assay is one of the most frequently used methods for measuring cell proliferation and cytotoxicity. The intensity of colour (measured spectrophotometrically) of the MTT formazan produced by living, metabolically active cells by measuring the activity of succinate dehydrogenase, mostly located in mitochondria was proportional to the number of live cells present. MTT was a yellow water-soluble tetrazolium dye that was reduced by live, but not dead cells to a purple formazan product that was insoluble in aqueous solutions.\n(§9) Each cell line was plated at an appropriate density (7.5·10^3 cells/well for L20B cell culture and 4·10^4 cells/well for L929 cell culture) in 96-well plates (Costar Corning; USA) for 24 h. […]"}, "L929": {"test_system": "L929", "experiment": "MTT cytotoxicity / cell survival in murine fibroblast line L929", "assay_type": "cell-based", "method": "as §1, §2, §3, §4, §5, §6, §7, §8, §9"}, "[2]": {"experiment": "MTT cytotoxicity / cell survival in murine fibroblast line L20B", "assay_type": "cell-based", "conditions": "mouse; L20B, 48 h; read-out: CC50 (cytotoxic concentration for 50% cells)", "method": "as §1, §2, §3, §4, §5, §6, §7, §8, §9"}, "L20B": {"test_system": "L20B", "experiment": "MTT cytotoxicity / cell survival in murine fibroblast line L20B", "assay_type": "cell-based", "method": "as §1, §2, §3, §4, §5, §6, §7, §8, §9"}, "[3]": {"test_system": "mucus production in the airway", "experiment": "OVA model: airway mucus production (PAS staining)", "assay_type": "in vivo, Balb/c mice", "conditions": "vs mice that received no treatment; 1 2 mg/kg therapeutically or preventively, beclomethasone 1 mg/kg", "method": "Enhanced airway mucus production results from airway inflammation and is hallmark of allergic asthma. Thus, mechanisms that suppress immune responses in the lung could result in suppression of mucus production. Mucus production was measured 2 days after i.n. challenge in experimental mice that were treated with compound 1 or beclomethasone (as standard) and lung sections were stained with periodic acid-Schiff stain (PAS). Mucus production in the lung was quantitated immunohistologically by evaluation of mucus-positive epithelia. […]\nMucus production was measured 2 days after i.n. challenge in experimental mice that were treated with compound 1 or beclomethasone (as standard) and lung sections were stained with PAS. Mucus production in the lung was quantitated immunohistologically by evaluation of mucus-positive epithelia."}},
  "data": [
    {"molecule": "O=c1oc2cc(O)cc(O)c2c(O)c1-c1coc2c1c(=O)oc1cc(O)cc(O)c12", "note": "[Compound 1, 7,9-dihydroxy-3-(4,5,7-trihydroxy-2-oxo-2H-chromene-3-yl)-4H-furo[3,2-c]chromen-4-one]", "values": [
      {"measurement": "CC50 at 48 h", "setting": "[1]", "result": 10, "unit": "mM"},
      {"measurement": "Cell survival, cell culture L929", "setting": "L929; 0.0001 mg/mL of 1, 48 h", "result": 100.6, "unit": "%"},
      {"measurement": "Cell survival, cell culture L929", "setting": "L929; 0.001 mg/mL of 1, 48 h", "result": 98.8, "unit": "%"},
      {"measurement": "Cell survival, cell culture L929", "setting": "L929; 0.01 mg/mL of 1, 48 h", "result": 95.3, "unit": "%"},
      {"measurement": "Cell survival, cell culture L929", "setting": "L929; 0.05 mg/mL of 1, 48 h", "result": 87.1, "unit": "%"},
      {"measurement": "Cell survival, cell culture L929", "setting": "L929; 0.1 mg/mL of 1, 48 h", "result": 89.3, "unit": "%"},
      {"measurement": "Cell survival, cell culture L929", "setting": "L929; 0.5 mg/mL of 1, 48 h", "result": 83.2, "unit": "%"},
      {"measurement": "Cell survival, cell culture L929", "setting": "L929; 1 mg/mL of 1, 48 h", "result": 76.1, "unit": "%"},
      {"measurement": "Cell survival, cell culture L929", "setting": "L929; 5 mg/mL of 1, 48 h", "result": 64.9, "unit": "%"},
      {"measurement": "Cell survival, cell culture L929", "setting": "L929; 10 mg/mL of 1, 48 h", "result": 50.5, "unit": "%"},
      {"measurement": "Cytotoxicity against L929 relative to L20B according to MNC values", "setting": "L929; 48 h", "result": 10, "unit": "×"},
      {"measurement": "Cytotoxicity against L929 versus L20B according to CC50 values", "setting": "L929; 48 h", "result": "the same cytotoxicity"},
      {"measurement": "Cytotoxicity (overall, in words)", "setting": "L929; L929, 48 h", "result": "low cytotoxicity"},
      {"measurement": "Typical cytopathology characterizing the toxic effect (microscopic morphology of monolayers)", "setting": "L929; L929, 48 h, 0.0001-10 mg/mL", "result": "not registered"},
      {"measurement": "CC50 at 48 h", "setting": "[2]", "result": 9, "unit": "mM"},
      {"measurement": "Cell survival, cell culture L20B", "setting": "L20B; 0.0001 mg/mL of 1, 48 h", "result": 103.3, "unit": "%"},
      {"measurement": "Cell survival, cell culture L20B", "setting": "L20B; 0.001 mg/mL of 1, 48 h", "result": 99.7, "unit": "%"},
      {"measurement": "Cell survival, cell culture L20B", "setting": "L20B; 0.01 mg/mL of 1, 48 h", "result": 94.5, "unit": "%"},
      {"measurement": "Cell survival, cell culture L20B", "setting": "L20B; 0.05 mg/mL of 1, 48 h", "result": 91.3, "unit": "%"},
      {"measurement": "Cell survival, cell culture L20B", "setting": "L20B; 0.1 mg/mL of 1, 48 h", "result": 88.2, "unit": "%"},
      {"measurement": "Cell survival, cell culture L20B", "setting": "L20B; 0.5 mg/mL of 1, 48 h", "result": 85.6, "unit": "%"},
      {"measurement": "Cell survival, cell culture L20B", "setting": "L20B; 1 mg/mL of 1, 48 h", "result": 72.4, "unit": "%"},
      {"measurement": "Cell survival, cell culture L20B", "setting": "L20B; 5 mg/mL of 1, 48 h", "result": 60.2, "unit": "%"},
      {"measurement": "Cell survival, cell culture L20B", "setting": "L20B; 10 mg/mL of 1, 48 h", "result": 48.5, "unit": "%"},
      {"measurement": "Cytotoxicity (overall, in words)", "setting": "L20B; L20B, 48 h", "result": "low cytotoxicity"},
      {"measurement": "Typical cytopathology characterizing the toxic effect (microscopic morphology of monolayers)", "setting": "L20B; L20B, 48 h, 0.0001-10 mg/mL", "result": "not registered"},
      {"measurement": "Mucin production in the airway (PAS)", "setting": "[3]", "result": "significant reduction"}
    ]}
  ]
}
